Results from US20180116993A1, “MODULATORS OF FARNESOID X RECEPTOR AND METHODS FOR THE USE THEREOF” (XIAMEN UNIVERSITY, priority 2015, published 2018).
Marks after values point to notes of the source that are not given here.

Tests used:
db/db mice [1] = experiment: Hepatic triglyceride, liver histology, serum ALT and ALP in high-fat diet fed db/db mice; format: in vivo, mouse; details: for Hepatic triglyceride (mM/g): vehicle 148 ± 14
Procedure, shortened: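 High-fat diet fed db/db mice aged 8-10 weeks dosed 10 mg/kg compound once daily for 10 days. Liver sections stained with H&E and 0.3% oil red O; hepatic triglyceride measured by tissue assay kit; serum ALP and ALT activities measured by kit.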

[2] = test system: mice with APAP-induced liver injury; experiment: Acetaminophen (APAP)-induced liver injury in mouse; format: in vivo; details: for Liver morphology by H&E staining (FIG. 1): 10 mg/kg (Tschimganine 20 mg/kg) i.p. five days, then APAP, compared to severe liver injury in control group; for expression levels of GPX1 and UGT1α1 in liver: mRNA by RT-PCR; for expression levels of GPX1 and UGT1α1 in liver / activities of serum AST, ALT and LDH: vs vehicle control group, Table 5 (not given)
Excerpt: Methods: Acetaminophen (APAP)-induced liver injury in mouse is a commonly used model to study drugs protecting liver. Overdose of APAP causes liver injury by inducing the production of reactive oxygen species and reactive nitrogen species, and excessive consumption of reductive substances such as antioxidant glutathione (GSH), leading to the reduction of GSH in vivo, and the following upregulation of the activities of the aspartate aminotransferase (AST), the alanine aminotransferase (ALT) and the lactate dehydrogenase (LDH), which will result in liver inflammation and necrosis. In this example, the APAP-induced liver injury was used to detect the protection and repair functions of our compounds in liver injury.
One-year or 8-week age mice were maintained under environmentally controlled conditions with free access to standard chow diet and water. Animal experiments were conducted in the barrier facility of the Laboratory Animal Center, Xiamen University, approved by the Institutional Animal Use and Care Committee of Xiamen University, China.
Compounds were solved with DMSO and then prepared to work concentration with 40% HBC (2-hydroxypropyl-β-cyclodextrin) in which the final work concentrations of compounds are 5 mg/kg body weight, 10 mg/kg or 20 mg/kg in 100 μl injection volume and the concentration of DMSO is 10%. Compounds were intraperitoneal (i.p.) injected once daily for five days. For Feroline and Tschimganine, one-year age mice were used in the experiment. For other compounds, 8-week age mice were used. […] For Tschimganine, 20 mg/kg dose of compound was administered to mice. For other compounds, 5 mg/kg dose of compounds were administered to mice. Six hours after the fifth injection, 500 mg/kg body weight of APAP solved in PBS was i.p. injected to the mice. 24 hours later, mice were sacrificed. Part of each liver was fixed in 4% paraformaldehyde, and the liver histology characterization was analyzed by haematoxylin and eosin (H&E) staining with paraffin-embedded sections by standard procedures. Other liver tissues were collected for detecting the GSH levels, and the mRNA expression of genes involved in liver repairing, such as GPX1 and UGT1a1, by RT-PCR. The serums were collected to measure enzymes activities including AST, ALT and LDH. For the synthetic derivatives, ALT and GSH were selected as indicating markers for the function of these compounds.

db/db mice [3] = experiment: Serum/blood metabolic parameters in high-fat diet fed db/db mice; format: in vivo, mouse; details: for Serum Glucose (mg/dl): treat for 10 days, vehicle 527 ± 63
Excerpt: KK-Ay mice (KK/Upj-Ay/J) are animal models with moderate obese and diabetes with insulin resistance. KK-Ay mice develop hyperglycemia, hyperinsulinemia, glucose intolerance and obesity as well as fat accumulation in liver by eight weeks of age. Pancreatic islets are hypertrophied and the β-cells are degranulated. db/db mice (BKS.Cg-Dockr+/+ Lepr^db/Jnju) are animal models of type II diabetes. They have the phenotype of insulin resistance. These model mice were used to detect the functions of our compounds on metabolic diseases.
8-10 weeks age mice were maintained as example 4, and fed with high-fat diet (Research Diets, D12492). Mice were i.p. injected with compounds once daily for 7, 10, 11 or 14 days as indicated in each table. After the last compounds injection, mice were fasted for 6 hours with free access to water, and then sacrificed. Part of each liver was fixed in 4% paraformaldehyde for H&E staining, and other liver tissues were stored in liquid nitrogen for enzyme activity measurement and gene expression analysis by RT-PCR. The serums were collected to measure metabolic parameters, including serum glucose, insulin, cholesterol, free fatty acid (FFA) and triglyceride levels. Serum glucose was analyzed using glucose oxidase method (Applygen, Beijing, China). The blood glucose in Table 11 was measured with Berenger blood glucose test strips (B/BRAUN, German) from blood by cutting mice tail after the 6th injection and following fast for 16 hours. Serum cholesterol and FFA were analyzed using Cholesterol Assay Kit and FFA Assay Kit (Bioassay Systems, USA; Nanjing Jiancheng Bioengineering Institute, China; FFA ELISA, R&D, USA), respectively. Serum triglyceride was analyzed using Triglyceride Assay Kit (Bioassay Systems, USA; WAKO Chemicals Inc., Japan; Applygen, Beijing, China). Liver triglyceride was analyzed using Tissue triglyceride assay kit (Applygen, Beijing, China). Serum insulin levels were measured by the Ultra Sensitive Mouse Insulin ELISA Kit (Crystal Chem. Inc., USA). RNA was isolated using Tissue RNA kit (Omega Bio-Tek, GA). The first strand cDNA were obtained by TAKARA reverse transcription kit. Real-time quantitative PCR were performed on a CFX96™ Real-Time PCR Detection System (Bio-Rad) using SYBR Premix Ex Taq™ (TAKARA). Relative mRNA expression levels were normalized to actin levels. […]

[4] = 10 mg/kg for 10 days, vehicle 377 ± 48, Table 15
[5] = 5 mg/kg i.p. once daily for five days, then APAP 500 mg/kg, 8-week age mice, vehicle 9.1 ± 0.5

Row | Compound | Hepatic triglyceride (mM/g) (db/db mice [1]; 10 mg/kg for 10 days) | Serum ALT (U/L) (db/db mice [1]; [4]) | Hepatic GSH (μM/g liver tissue) [2, 5] | Liver morphology by H&E staining (FIG. 1) [2] | expression levels of GPX1 and UGT1α1 in liver [2] | activities of serum AST, ALT and LDH [2] | Serum Glucose (mg/dl) (db/db mice [3]; 10 mg/kg) | also measured
1 | Nc1ccc(C(=O)OC2CCCCCC2)cc1 [XD-12, cycloheptyl 4-aminobenzoate] | 103 ± 20 ^a mM/g | 199 ± 37 ^a U/L | 12.5 ± 0.7 ^a μM/g liver tissue | – | – | – | – | –
2 | CC1(C)C2CCC1(C)C(OC(=O)c1ccc(F)c(Br)c1)C2 (centres unmarked) [XD-13, 1,7,7-trimethyl-bicyclo[2.2.1]-heptan-2-yl 3-bromo-4-fluoro-benzoate] | – | – | 13.7 ± 0.9 ^a μM/g liver tissue | – | – | – | – | Serum ALP (U/L) (db/db mice [1]; 10 mg/kg once daily for 10 days, vehicle 129 ± 15): 92 ± 7^c U/L; Serum ALT (U/L) (db/db mice [1]; 10 mg/kg once daily for 10 days, vehicle 377 ± 48, Table 17): 135 ± 5^c U/L
3 | COc1cc(C(=O)OC2C/C(C)=C/CC/C(C)=C/[C@@H](O)[C@H]2C(C)C)ccc1O (some centres unmarked) [Tschimganidine] | – | – | – | almost normal liver morphology | significantly upregulated | dramatically lower | – | –
4 | CC1(C)C2CCC1(C)C(OC(=O)c1ccc(=O)oc1)C2 (centres unmarked) [XD-9, 1,7,7-trimethyl-bicyclo[2.2.1]-heptan-2-yl 6-oxo-6H-pyran-3-carboxylate] | 93 ± 14 ^a mM/g | 121 ± 33 ^a U/L | – | – | – | – | 399 ± 41^a mg/dl | –
5 | Cc1cc(C(=O)OC2CCC3CCCCC3C2)ccc1[N+](=O)[O-] (centres unmarked) [XD-35, decahydro-naphthalen-2-yl 3-methyl-4-nitro-benzoate] | – | – | 12.6 ± 1.6 ^a μM/g liver tissue | – | – | – | 337 ± 67^a mg/dl | –
6 | CC1(C)C2CCC1(C)C(OC(=O)c1ccc(F)cc1)C2 (centres unmarked) [XD-0, 1,7,7-trimethyl-bicyclo[2.2.1]-heptan-2-yl 4-fluorobenzoate] | 91 ± 22 ^a mM/g | 106 ± 22 ^a U/L | 15.0 ± 0.5 ^b μM/g liver tissue | – | – | – | 223 ± 33^b mg/dl | –
7 | C/C1=C\CCC(C)(O)/C=C/C(C(C)C)C(OC(=O)c2ccc(O)cc2)C1 (centres unmarked) [Feroline] | – | – | – | almost normal liver morphology | significantly upregulated | dramatically lower | – | Hepatic GSH (μM/g liver tissue) ([2]; 10 mg/kg i.p. once daily for five days, then APAP 500 mg/kg, one-year age mice, vehicle 8.0 ± 2.8): 14.2 ± 1.6^b μM/g liver tissue
8 | CC1(C)C2CCC1(C)C(OC(=O)c1ccc(=O)[nH]c1)C2 (centres unmarked) [XD-8, 1,7,7-trimethyl-bicyclo[2.2.1]-heptan-2-yl 6-oxo-1,6-dihydropyridine-3-carboxylate] | 102 ± 8 ^c mM/g | 115 ± 31 ^a U/L | – | – | – | – | – | ALT (U/L) ([2]; 5 mg/kg i.p. once daily for five days, then APAP 500 mg/kg, 8-week age mice, serum, vehicle 786 ± 111): 115 ± 38 ^c U/L
9 | CC1(C)[C@@H]2CC[C@@]1(C)[C@@H](OC(=O)c1ccc(O)cc1)C2 [Tschimgine] | – | – | – | almost normal liver morphology | significantly upregulated | dramatically lower | – | Serum Triglyceride (mg/dl) (db/db mice [3]; 10 mg/kg for 11 days, vehicle 96 ± 16): 38 ± 8^a mg/dl; Serum Cholesterol (mg/dl) (db/db mice [3]; 10 mg/kg for 11 days, vehicle 121 ± 13): 96 ± 3^a mg/dl; Serum FFA (μM) (db/db mice [3]; 10 mg/kg for 11 days, vehicle 371 ± 27): 302 ± 21^a μM; Blood Glucose (mg/dl) (db/db mice [3]; 10 mg/kg, 11 days, tail blood after the 6th injection and 16 h fast, vehicle 452 ± 24): 252 ± 54^b mg/dl
